Measurements: ChEMBL document CHEMBL1201862, “PubChem BioAssay data set” (2004)
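Five concentrations, 48 hours, 96-well plates. GI50 is the concentration that inhibits growth by half.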 The source made the active and inactive calls. Rule as the data show it: active = GI50 up to about 1.1 µM and inactive = higher.

Assays:
Experiment in all cases: inhibition of tumour cell growth, NCI panel, 48 h
RPMI-8226 = tested on: RPMI-8226
Malme-3M = tested on: Malme-3M
A498 = tested on: A498
EKVX = tested on: EKVX
IGROV-1 = tested on: IGROV-1
K562 = tested on: K562
SN12C = tested on: SN12C
NCI-H23 = tested on: NCI-H23
MOLT-4 = tested on: MOLT-4
UACC-257 = tested on: UACC-257
OVCAR-5 = tested on: OVCAR-5
PC-3 = tested on: PC-3
COLO 205 = tested on: COLO 205
UO-31 = tested on: UO-31
NCI/ADR-RES = tested on: NCI/ADR-RES
HT-29 = tested on: HT-29
UACC-62 = tested on: UACC-62
MCF7 = tested on: MCF7
CCRF-CEM = tested on: CCRF-CEM

Row | Structure (SMILES) | GI50 (RPMI-8226) | GI50 (Malme-3M) | GI50 (A498) | GI50 (EKVX) | GI50 (IGROV-1) | GI50 (K562) | GI50 (SN12C) | GI50 (NCI-H23) | GI50 (MOLT-4) | GI50 (UACC-257) | GI50 (OVCAR-5) | GI50 (PC-3) | GI50 (COLO 205) | GI50 (UO-31) | GI50 (NCI/ADR-RES) | GI50 (HT-29) | GI50 (UACC-62) | GI50 (MCF7) | GI50 (CCRF-CEM)
1 | CC(C)[C@]12O[C@H]1[C@@H]1O[C@@]13[C@@]1(C)CCC4=C(COC4=O)[C@@H]1C[C@@H]1O[C@@]13C2=O [TRIPTONIDE] | < 0.01 µM (active) | 0.0191 µM (active) | 0.0178 µM (active) | 0.0287 µM (active) | < 0.01 µM (active) | 0.0128 µM (active) | < 0.0172 µM (active) | < 0.01 µM (active) | < 0.01 µM (active) | < 0.0164 µM (active) | 0.0317 µM (active) | 0.0227 µM (active) | < 0.0113 µM (active) | 0.0123 µM (active) | 0.0386 µM (active) | < 0.01 µM (active) | 0.0122 µM (active) | < 0.01 µM (active) | 0.063 µM (active)
2 | CCN(CC)CCC(=O)c1ccc(Sc2ccc(F)cc2)cc1 | 2.44 µM (inactive) | 16 µM (inactive) | 26.4 µM (inactive) | 19.9 µM (inactive) | 18.2 µM (inactive) | 52.8 µM (inactive) | 21.7 µM (inactive) | 17.7 µM (inactive) | 15.1 µM (inactive) | 15.7 µM (inactive) | 19.7 µM (inactive) | 17.1 µM (inactive) | 21.1 µM (inactive) | 17.8 µM (inactive) | 24.3 µM (inactive) | 21.8 µM (inactive) | 16.2 µM (inactive) | 14.7 µM (inactive) | 7.28 µM (inactive)
3 | Clc1ccc(Nc2nnc(CNc3ccc(-c4nnc(Nc5ccc(Cl)cc5)o4)cc3)o2)cc1 | 9.42 µM (inactive) | 14.7 µM (inactive) | 14.9 µM (inactive) | 22.3 µM (inactive) | 14.1 µM (inactive) | 0.504 µM (active) | 16 µM (inactive) | 15.9 µM (inactive) | 6.35 µM (inactive) | 20.3 µM (inactive) | 19.6 µM (inactive) | 11.8 µM (inactive) | 19.8 µM (inactive) | 14.5 µM (inactive) | 29.7 µM (inactive) | 12.2 µM (inactive) | 13.6 µM (inactive) | 10.9 µM (inactive) | 7.13 µM (inactive)
4 | CC1(C)O[C@@H]2C[C@H]3[C@@H]4C[C@H](F)C5=CC(=O)C=C[C@]5(C)[C@@]4(F)[C@@H](O)C[C@]3(C)[C@]2(C(=O)CO)O1 [FLUOCINOLONE ACETONIDE] | < 0.01 µM (active) | > 100 µM (inactive) | > 100 µM (inactive) | > 100 µM (inactive) | > 100 µM (inactive) | > 100 µM (inactive) | 12 µM (inactive) | > 100 µM (inactive) | > 83.8 µM (inactive) | > 89.3 µM (inactive) | > 100 µM (inactive) | > 72.6 µM (inactive) | > 100 µM (inactive) | > 87.5 µM (inactive) | > 100 µM (inactive) | > 100 µM (inactive) | > 100 µM (inactive) | > 100 µM (inactive) | < 0.01 µM (active)
5 | CC(C)[Si](OC1=C(C(=O)Nc2ccccc2Cl)CCCCC1)(C(C)C)C(C)C | > 100 µM (inactive) | > 100 µM (inactive) | > 100 µM (inactive) | > 100 µM (inactive) | > 100 µM (inactive) | > 100 µM (inactive) | > 100 µM (inactive) | > 100 µM (inactive) | > 100 µM (inactive) | > 100 µM (inactive) | 97.9 µM (inactive) | > 100 µM (inactive) | > 100 µM (inactive) | > 100 µM (inactive) | > 100 µM (inactive) | > 100 µM (inactive) | > 100 µM (inactive) | > 100 µM (inactive) | 0.462 µM (active)
6 | O=C(CSc1ncccn1)N/N=C/c1ccccc1OCc1ccccc1 | 19.5 µM (inactive) | 32.4 µM (inactive) | 22.1 µM (inactive) | 27.9 µM (inactive) | 28.4 µM (inactive) | 20.1 µM (inactive) | 27.2 µM (inactive) | 32.3 µM (inactive) | 20.2 µM (inactive) | 21 µM (inactive) | > 100 µM (inactive) | 28.8 µM (inactive) | 19.2 µM (inactive) | 44.5 µM (inactive) | 25.9 µM (inactive) | 34.1 µM (inactive) | 20.9 µM (inactive) | 17.6 µM (inactive) | 15.3 µM (inactive)
7 | COc1ccc(N/N=C2\C3=C(CCC(C)(C)O3)C(=O)c3ccccc32)cc1 | 16.8 µM (inactive) | 20.9 µM (inactive) | 15 µM (inactive) | 18.1 µM (inactive) | 15.2 µM (inactive) | 15.9 µM (inactive) | 17.9 µM (inactive) | 18 µM (inactive) | 18.1 µM (inactive) | 19.7 µM (inactive) | 19.4 µM (inactive) | 21.9 µM (inactive) | 22.9 µM (inactive) | 18.1 µM (inactive) | 19.6 µM (inactive) | 13.6 µM (inactive) | 14.5 µM (inactive) | 12.4 µM (inactive) | 16 µM (inactive)
8 | O=C(O)Cc1c(-c2ccc([N+](=O)[O-])cc2)c(=O)oc2cc(O)ccc12 | 19.9 µM (inactive) | 24.1 µM (inactive) | 22.4 µM (inactive) | 15.1 µM (inactive) | 61.4 µM (inactive) | 30.9 µM (inactive) | 30.5 µM (inactive) | 36.3 µM (inactive) | 4.12 µM (inactive) | 20.4 µM (inactive) | 30.1 µM (inactive) | 28.1 µM (inactive) | 34.2 µM (inactive) | 23.4 µM (inactive) | 20 µM (inactive) | 11.6 µM (inactive) | 38.9 µM (inactive) | 32.5 µM (inactive) | 22.5 µM (inactive)
9 | NS(=O)(=O)c1ccc(NC(=O)N/N=C/c2ccccc2O)cc1 | > 100 µM (inactive) | 74.3 µM (inactive) | > 100 µM (inactive) | > 100 µM (inactive) | 58.7 µM (inactive) | 40.8 µM (inactive) | 85.3 µM (inactive) | 80.7 µM (inactive) | 37.7 µM (inactive) | 58.6 µM (inactive) | > 100 µM (inactive) | > 100 µM (inactive) | 35.5 µM (inactive) | 60.7 µM (inactive) | 68.4 µM (inactive) | 45.5 µM (inactive) | 60.4 µM (inactive) | 58.2 µM (inactive) | 36.1 µM (inactive)
10 | COC1/C=C\C=C(/C)C(=O)NC2=CC(=O)C(O)=C(CC(C)CC(OC)C(O)C(C)/C=C(\C)C1OC(N)=O)C2=O (stereo unspecified) | 0.0789 µM (active) | 0.0668 µM (active) | 38.5 µM (inactive) | 10.8 µM (inactive) | 0.757 µM (active) | 0.137 µM (active) | 0.0446 µM (active) | 0.482 µM (active) | 0.0959 µM (active) | 0.384 µM (active) | 11.5 µM (inactive) | 0.253 µM (active) | 0.0422 µM (active) | 3.95 µM (inactive) | 64.6 µM (inactive) | 0.0269 µM (active) | 0.382 µM (active) | 0.0826 µM (active) | 0.0282 µM (active)
11 | O=C(Nc1nncs1)NS(=O)(=O)n1c(=S)sc2ccccc21 | > 100 µM (inactive) | > 100 µM (inactive) | > 100 µM (inactive) | 72.6 µM (inactive) | > 100 µM (inactive) | > 100 µM (inactive) | > 100 µM (inactive) | > 100 µM (inactive) | 42.4 µM (inactive) | > 100 µM (inactive) | > 100 µM (inactive) | > 100 µM (inactive) | > 100 µM (inactive) | > 100 µM (inactive) | > 100 µM (inactive) | > 100 µM (inactive) | > 100 µM (inactive) | > 100 µM (inactive) | 24.9 µM (inactive)
12 | CC(=O)OC1CN2CCC1CC2 (stereo unspecified) [ACECLIDINE] | > 100 µM (inactive) | > 100 µM (inactive) | 3.45 µM (inactive) | > 100 µM (inactive) | > 100 µM (inactive) | > 100 µM (inactive) | > 100 µM (inactive) | > 100 µM (inactive) | > 100 µM (inactive) | > 100 µM (inactive) | > 100 µM (inactive) | > 100 µM (inactive) | > 100 µM (inactive) | > 100 µM (inactive) | > 100 µM (inactive) | > 100 µM (inactive) | > 100 µM (inactive) | > 100 µM (inactive) | > 100 µM (inactive)
13 | Cc1[nH]c2ccccc2c1/C=N/c1ccc(Oc2ccccc2)cc1 | 10.4 µM (inactive) | 19 µM (inactive) | 18.3 µM (inactive) | 14.1 µM (inactive) | 13.4 µM (inactive) | 23.2 µM (inactive) | 16.6 µM (inactive) | 16 µM (inactive) | 13.8 µM (inactive) | 17.4 µM (inactive) | 16.3 µM (inactive) | 13.8 µM (inactive) | 15.9 µM (inactive) | 12 µM (inactive) | 19.1 µM (inactive) | 17.3 µM (inactive) | 17.9 µM (inactive) | 19.1 µM (inactive) | 7.05 µM (inactive)
14 | COc1ccc(CC(C)NCC(O)c2ccc(O)c(NC=O)c2)cc1 (stereo unspecified) | > 100 µM (inactive) | > 100 µM (inactive) | > 100 µM (inactive) | > 100 µM (inactive) | > 100 µM (inactive) | > 100 µM (inactive) | 20.1 µM (inactive) | > 100 µM (inactive) | > 100 µM (inactive) | > 100 µM (inactive) | > 100 µM (inactive) | > 100 µM (inactive) | > 100 µM (inactive) | > 100 µM (inactive) | > 100 µM (inactive) | 86.7 µM (inactive) | > 100 µM (inactive) | > 100 µM (inactive) | > 100 µM (inactive)
